Experimental data reported in EP0555116B1, “Compositions based on antiseptics and their applications” (HUTCHINSON, priority 1992, dated 1993).

Legend:
virus HIV1 = test: Infectivity of HIV1 for normal human T lymphocytes after 10 min treatment of the virus; reverse transcriptase activity (ATI) in culture supernatants; format: cell-based; conditions: for action virucide: produit utilisé seul, 0,002
Procedure: Pour l'étude du pouvoir infectieux résiduel après traitement des préparations virales, le milieu de culture des lymphocytes T humains normaux (milieu complet) correspond au milieu ci-dessus auquel sont ajoutés 10 % d'interleukine II, du polybrène (2 µg/ml) et du sérum anti-interféron humain 1/2500 (M.A. REY et al., Biochem. Biophys. Res. Com., 1984, 121, 126-133).
L'infectivité est étudiée sur des lymphocytes T obtenus à partir du sang périphérique d'un donneur humain sain, et séparés sur un gradient de Ficoll.
Les lymphocytes sont stimulés pendant 3 jours par de la phytohémagglutinine P (PHA-P), diluée au 1/500 et cultivés dans du milieu complet. Les cellules T blastiques sont infectées par le virus, traité ou non, pour mettre en évidence le pouvoir infectieux résiduel.
Le virus est obtenu à partir d'un surnageant de culture de la lignée CEM infectée par HIV1. Cette lignée T lymphoblastoïde infectée par HIV1 est utilisée pour la production virale.
Le titre des surnageants utilisés est évalué après dosage de l'activité transcriptase inverse (ATI) du virus.
Dans les essais qui suivent, on a utilisé un surnageant dont l'ATI est de 1,8.10^6 cpm/ml. 2. Méthodes :
• Préparation de la solution virale : plusieurs tubes contenant 1 ml de surnageant viral, ATI 1,8.10^6 cmp/ml sont concentrés par ultracentrifugation. Les culots de virus ainsi obtenus sont repris soit par chacune des dilutions de produit réalisées dans de l'eau bidistillée stérile, soit par de l'eau (virus témoin non traité). • Traitement des préparations virales : les préparations virales concentrées sont toutes traitées selon le protocole indiqué ci-dessous : • . échantillons viraux traités : les culots de virus concentrés par ultracentrifugation sont resuspendus dans 100 µl de chacune des concentrations en produits étudiés et incubés pendant 10 minutes. • . échantillon viral témoin : témoin virus non traité : le produit est remplacé par 100 µl d'eau bidistillée stérile. A la suite de ce temps d'incubation de 10 minutes, le virus présent dans chaque échantillon est rincé puis reconcentré par addition de 12 ml de milieu RPMI 1640 et ultracentrifugation. Les culots de virus sont alors repris dans 1 ml de milieu complet et utilisés pour l'infection de lymphocytes T humains normaux. • Mesure de l'infectivité des échantillons : 4.10^6 lymphocytes T humains normaux sont infectés avec chacune des préparations virales traitées ou témoins indiquées ci-dessus. L'infection des cellules T est réalisée selon une méthode précédemment décrite (F. BARRE-SINOUSSI et al., Science, 1983, 220, 868-871) : en résumé 4.10^6 cellules en suspension dans 1 ml de milieu complet sont incubées avec 1 ml de chacune des préparations virales traitées ou témoins pendant 1 heure à 37°C. Après 2 lavages par plusieurs ml de milieu de culture, les suspensions cellulaires sont ajustées à la concentration de 1.10^6 cellules par ml. Le jour de l'infection est considéré comme jour 0. • . Cellules témoin : 4.10^6 lymphocytes T sont cultivés et passés tous les 3 ou 4 jours dans les mêmes conditions que tous les autres échantillons. Ce témoin correspond au témoin négatif de la production virale au cours de la manipulation. La production virale au cours du temps est déterminée en mesurant l'activité transcriptase inverse présente dans les surnageants de culture selon le protocole décrit ci-dessous. • . Mesure de l'activité transcriptase inverse des préparations virales témoins et des échantillons viraux traités par les produits : ce dosage permet d'évaluer la présence de virus résiduel non inactivé dans l'échantillon de départ. Il est réalisé à partir de 1 ml de surnageant de culture, prélevé tous les 3 ou 4 jours et ultracentrifugé.
Les activités enzymatiques sont mesurées dans 50 µl d'un mélange réactionnel contenant 50 mM Tris pH 7,8, 20 mM MgCl2, 20 mM KCl, 2 mM dithiotréitol, 0,25 OD/ml oligo dT, 0,25 OD/ml poly rA, 0,1 % Triton X 100 et 2,5 µCi 3H DTTP. […]

[1] = test system: cellules fibroblastiques humaines; test: Cytotoxicity control of the products on human fibroblast cultures (10 tubes, 3 days); format: cell-based; conditions: pur et dilutions 10^-1 à 10^-3, 0,1 ml dans 1 ml
Source text: On réalise des contrôles de cytotoxicité des produits pour les cultures cellulaires utilisées dans les tests, c'est-à-dire les cellules fibroblastiques humaines.
Les cellules sont cultivées en milieu de Dulbecco enrichi en sérum de veau foetal à 10 %; au moment de leur utilisation, les cellules sont lavées et on utilise le même milieu de culture, mais dépourvu de sérum de veau.
Pour chaque produit testé ou chaque composition, on a utilisé 10 tubes de culture cellulaire et après inoculation du produit, les tubes ont été surveillés pendant trois jours.
Chaque produit a été successivement utilisé pur, et aux dilutions 10^-1, 10^-2, 10^-3 et ajouté aux tubes de culture contenant 1 ml de milieu nutritif, sous le volume de 0,1 ml.

Compound: [H]/N=C(\N/C(=N/[H])NCCCCCCNC(=N)NC(=N)Nc1ccc(Cl)cc1)Nc1ccc(Cl)cc1 [Chlorhexidine, digluconate de chlorhexidine, reference compound]
- ATI dans les surnageants (virus HIV1; Chlorhexidine 0,01 %, J3): 262 cpm/ml
- ATI dans les surnageants (virus HIV1; Chlorhexidine 0,01 %, J6): 274 cpm/ml
- ATI dans les surnageants (virus HIV1; Chlorhexidine 0,01 %, J10): 200 cpm/ml
- ATI dans les surnageants (virus HIV1; Chlorhexidine 0,01 %, J13): 250 cpm/ml
- ATI dans les surnageants (virus HIV1; Chlorhexidine 0,01 %, J17): 230 cpm/ml
- ATI dans les surnageants (virus HIV1; Chlorhexidine 0,01 %, J20): 272 cpm/ml
- ATI dans les surnageants (virus HIV1; Chlorhexidine 0,01 %, J23): 456 cpm/ml
- ATI dans les surnageants (virus HIV1; Chlorhexidine 0,01 %, J27): 420 cpm/ml
- ATI dans les surnageants (virus HIV1; Chlorhexidine 0,01 %, J30): 276 cpm/ml
- ATI dans les surnageants (virus HIV1; Chlorhexidine 0,002 %, J3): 252 cpm/ml
- ATI dans les surnageants (virus HIV1; Chlorhexidine 0,002 %, J6): 352 cpm/ml
- ATI dans les surnageants (virus HIV1; Chlorhexidine 0,002 %, J10): 1304 cpm/ml
- ATI dans les surnageants (virus HIV1; Chlorhexidine 0,002 %, J13): 1752 cpm/ml
- ATI dans les surnageants (virus HIV1; Chlorhexidine 0,002 %, J17): 4288 cpm/ml
- ATI dans les surnageants (virus HIV1; Chlorhexidine 0,002 %, J20): 6138 cpm/ml
- ATI dans les surnageants (virus HIV1; Chlorhexidine 0,002 %, J23): 4614 cpm/ml
- ATI dans les surnageants (virus HIV1; Chlorhexidine 0,002 %, J27): 1616 cpm/ml
- ATI dans les surnageants (virus HIV1; Chlorhexidine 0,002 %, J30): 4528 cpm/ml
- ATI dans les surnageants (virus HIV1; Chlorhexidine 0,005 %, J3): 360 cpm/ml
- ATI dans les surnageants (virus HIV1; Chlorhexidine 0,005 %, J6): 374 cpm/ml
- ATI dans les surnageants (virus HIV1; Chlorhexidine 0,005 %, J10): 580 cpm/ml
- ATI dans les surnageants (virus HIV1; Chlorhexidine 0,005 %, J13): 742 cpm/ml
- ATI dans les surnageants (virus HIV1; Chlorhexidine 0,005 %, J17): 1902 cpm/ml
- ATI dans les surnageants (virus HIV1; Chlorhexidine 0,005 %, J20): 1126 cpm/ml
- ATI dans les surnageants (virus HIV1; Chlorhexidine 0,005 %, J23): 1226 cpm/ml
- ATI dans les surnageants (virus HIV1; Chlorhexidine 0,005 %, J27): 528 cpm/ml
- ATI dans les surnageants (virus HIV1; Chlorhexidine 0,005 %, J30): 720 cpm/ml
- action virucide (virus HIV1): ne sont pas virucides
- toxicité pour les cultures cellulaires ([1]; solution à 0,05 %): aucune toxicité

Compound: CCCCCCCCCC[N+](C)(C)CCCCCCCCCC [Bardac®, chlorure de didécyldiméthylammonium]
- ATI dans les surnageants (virus HIV1; Bardac® 0,01 %, J3): 334 cpm/ml
- ATI dans les surnageants (virus HIV1; Bardac® 0,01 %, J6): 222 cpm/ml
- ATI dans les surnageants (virus HIV1; Bardac® 0,01 %, J10): 1768 cpm/ml
- ATI dans les surnageants (virus HIV1; Bardac® 0,01 %, J13): 1592 cpm/ml
- ATI dans les surnageants (virus HIV1; Bardac® 0,01 %, J17): 190 cpm/ml
- ATI dans les surnageants (virus HIV1; Bardac® 0,01 %, J20): 390 cpm/ml
- ATI dans les surnageants (virus HIV1; Bardac® 0,01 %, J23): 1328 cpm/ml
- ATI dans les surnageants (virus HIV1; Bardac® 0,01 %, J27): 780 cpm/ml
- ATI dans les surnageants (virus HIV1; Bardac® 0,01 %, J30): 1000 cpm/ml
- ATI dans les surnageants (virus HIV1; Bardac® 0,0004 %, J3): 702 cpm/ml
- ATI dans les surnageants (virus HIV1; Bardac® 0,0004 %, J6): 18136 cpm/ml
- ATI dans les surnageants (virus HIV1; Bardac® 0,0004 %, J10): 117326 cpm/ml
- ATI dans les surnageants (virus HIV1; Bardac® 0,0004 %, J13): 74214 cpm/ml
- ATI dans les surnageants (virus HIV1; Bardac® 0,0004 %, J17): 50674 cpm/ml
- ATI dans les surnageants (virus HIV1; Bardac® 0,0004 %, J20): 22478 cpm/ml
- ATI dans les surnageants (virus HIV1; Bardac® 0,0004 %, J23): 13806 cpm/ml
- ATI dans les surnageants (virus HIV1; Bardac® 0,0004 %, J27): 7800 cpm/ml
- ATI dans les surnageants (virus HIV1; Bardac® 0,0004 %, J30): 4426 cpm/ml
- ATI dans les surnageants (virus HIV1; Bardac® 0,002 %, J3): 464 cpm/ml
- ATI dans les surnageants (virus HIV1; Bardac® 0,002 %, J6): 2472 cpm/ml
- ATI dans les surnageants (virus HIV1; Bardac® 0,002 %, J10): 16066 cpm/ml
- ATI dans les surnageants (virus HIV1; Bardac® 0,002 %, J13): 24902 cpm/ml
- ATI dans les surnageants (virus HIV1; Bardac® 0,002 %, J17): 77754 cpm/ml
- ATI dans les surnageants (virus HIV1; Bardac® 0,002 %, J20): 75554 cpm/ml
- ATI dans les surnageants (virus HIV1; Bardac® 0,002 %, J23): 101394 cpm/ml
- ATI dans les surnageants (virus HIV1; Bardac® 0,002 %, J27): 80560 cpm/ml
- ATI dans les surnageants (virus HIV1; Bardac® 0,002 %, J30): 64692 cpm/ml
- ATI dans les surnageants (virus HIV1; Bardac® 0,004 %, J3): 346 cpm/ml
- ATI dans les surnageants (virus HIV1; Bardac® 0,004 %, J6): 298 cpm/ml
- ATI dans les surnageants (virus HIV1; Bardac® 0,004 %, J10): 160 cpm/ml
- ATI dans les surnageants (virus HIV1; Bardac® 0,004 %, J13): 170 cpm/ml
- ATI dans les surnageants (virus HIV1; Bardac® 0,004 %, J17): 350 cpm/ml
- ATI dans les surnageants (virus HIV1; Bardac® 0,004 %, J20): 218 cpm/ml
- ATI dans les surnageants (virus HIV1; Bardac® 0,004 %, J23): 444 cpm/ml
- ATI dans les surnageants (virus HIV1; Bardac® 0,004 %, J27): 244 cpm/ml
- ATI dans les surnageants (virus HIV1; Bardac® 0,004 %, J30): 264 cpm/ml
- ATI dans les surnageants (virus HIV1; Bardac® 0,006 %, J3): 320 cpm/ml
- ATI dans les surnageants (virus HIV1; Bardac® 0,006 %, J6): 326 cpm/ml
- ATI dans les surnageants (virus HIV1; Bardac® 0,006 %, J10): 204 cpm/ml
- ATI dans les surnageants (virus HIV1; Bardac® 0,006 %, J13): 248 cpm/ml
- ATI dans les surnageants (virus HIV1; Bardac® 0,006 %, J17): 364 cpm/ml
- ATI dans les surnageants (virus HIV1; Bardac® 0,006 %, J20): 180 cpm/ml
- ATI dans les surnageants (virus HIV1; Bardac® 0,006 %, J23): 328 cpm/ml
- ATI dans les surnageants (virus HIV1; Bardac® 0,006 %, J27): 588 cpm/ml
- ATI dans les surnageants (virus HIV1; Bardac® 0,006 %, J30): 196 cpm/ml
- action virucide (virus HIV1): ne sont pas virucides
- toxicité pour les cultures cellulaires ([1]; solution à 0,04 %): non toxique à la dilution 10^-3
